Experimental findings from publication PMC10043937, “Pyranonaphthoquinones and Naphthoquinones from the Stem Bark of Ventilago harmandiana and Their Anti-HIV-1 Activity” (Journal of Natural Products, 2023) are described below.

One may read the melting point as the temperature, or range, at which the solid turns liquid.

With `COc1c(C)c2c(c(O)c1OC)C(=O)[C@@H]1[C@@H](C)O[C@@H](C)C[C@H]1C2=O` [Compound 3, (1R,3S,4aR,10aS)-7,8-Dimethoxy-9-hydroxy-1,3,6-trimethyl-3,4,4a,10a-tetrahydro-1H-naphtho[2,3-c]pyran-5,10-dione], the melting point is 116 to 117 °C.
`COC1=C(OC)C(=O)c2c(cc(C)c(C(C)=O)c2O)C1=O` [Compound 6, 7-Acetyl-2,3-dimethoxy-8-hydroxy-6-methylnaphthalene-1,4-dione] returned a melting point of 146 to 147 °C.
